{"source": "ChEMBL document CHEMBL3988442", "about": "“University of Dundee, Small-Polar-MMV Screening Library” (2021)", "key": {"[1]": {"molecular_target": "T1, Tyrosyl-tRNA synthetase, putative (Trypanosoma cruzi (strain CL Brener), UniProt Q4DSP6)", "T1 sequence (Q4DSP6 whole entry)": "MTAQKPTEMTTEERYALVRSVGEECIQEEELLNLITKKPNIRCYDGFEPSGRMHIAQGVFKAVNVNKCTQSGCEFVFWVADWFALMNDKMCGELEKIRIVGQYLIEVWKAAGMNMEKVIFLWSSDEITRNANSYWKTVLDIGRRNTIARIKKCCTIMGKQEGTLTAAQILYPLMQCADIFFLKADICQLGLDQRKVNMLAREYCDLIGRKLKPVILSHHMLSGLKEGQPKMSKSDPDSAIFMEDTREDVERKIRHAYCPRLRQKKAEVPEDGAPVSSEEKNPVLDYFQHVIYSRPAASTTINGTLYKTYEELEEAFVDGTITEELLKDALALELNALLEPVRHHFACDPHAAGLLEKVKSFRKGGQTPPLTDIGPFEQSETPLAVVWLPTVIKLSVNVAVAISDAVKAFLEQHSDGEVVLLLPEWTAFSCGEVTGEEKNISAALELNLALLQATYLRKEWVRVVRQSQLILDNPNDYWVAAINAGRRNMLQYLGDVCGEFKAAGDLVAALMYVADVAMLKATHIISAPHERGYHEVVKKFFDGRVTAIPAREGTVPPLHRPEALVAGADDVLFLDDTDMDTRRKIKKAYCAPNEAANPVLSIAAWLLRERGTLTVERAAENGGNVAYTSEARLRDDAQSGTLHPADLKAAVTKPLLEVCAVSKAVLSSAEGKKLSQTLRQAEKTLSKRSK", "assay": "Trypanosoma cruzi tyrosyl tRNA synthetase (TcYRS) _High Tyrosine SOP", "format": "functional"}, "[2]": {"molecular_target": "T1, Tyrosyl-tRNA synthetase, putative", "assay": "Trypanosoma cruzi tyrosyl tRNA synthetase (TcYRS) SOP", "format": "functional"}, "Shiga toxin 2": {"molecular_target": "T2, Shiga toxin 2 (Escherichia coli O157:H7, UniProt P09385+P09386)", "T2 sequence (P09385 whole entry)": "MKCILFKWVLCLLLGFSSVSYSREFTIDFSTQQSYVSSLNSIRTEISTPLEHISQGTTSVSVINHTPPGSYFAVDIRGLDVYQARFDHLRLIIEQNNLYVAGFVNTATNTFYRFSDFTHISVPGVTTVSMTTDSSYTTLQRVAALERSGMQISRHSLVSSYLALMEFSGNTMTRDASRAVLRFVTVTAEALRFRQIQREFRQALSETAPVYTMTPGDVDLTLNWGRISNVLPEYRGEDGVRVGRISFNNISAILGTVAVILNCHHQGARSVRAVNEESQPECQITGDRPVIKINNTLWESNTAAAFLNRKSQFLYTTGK", "T2 sequence (P09386 whole entry)": "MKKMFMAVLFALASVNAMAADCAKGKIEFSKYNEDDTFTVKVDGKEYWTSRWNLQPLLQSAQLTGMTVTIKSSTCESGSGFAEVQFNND", "assay": "E. coli 0.157:H7 Shiga Toxin SOP - stx2 screening assay", "format": "functional"}, "[3]": {"molecular_target": "Protein translocase subunit SecA (Escherichia coli (strain K12), UniProt P10408)", "sequence (P10408 whole entry)": "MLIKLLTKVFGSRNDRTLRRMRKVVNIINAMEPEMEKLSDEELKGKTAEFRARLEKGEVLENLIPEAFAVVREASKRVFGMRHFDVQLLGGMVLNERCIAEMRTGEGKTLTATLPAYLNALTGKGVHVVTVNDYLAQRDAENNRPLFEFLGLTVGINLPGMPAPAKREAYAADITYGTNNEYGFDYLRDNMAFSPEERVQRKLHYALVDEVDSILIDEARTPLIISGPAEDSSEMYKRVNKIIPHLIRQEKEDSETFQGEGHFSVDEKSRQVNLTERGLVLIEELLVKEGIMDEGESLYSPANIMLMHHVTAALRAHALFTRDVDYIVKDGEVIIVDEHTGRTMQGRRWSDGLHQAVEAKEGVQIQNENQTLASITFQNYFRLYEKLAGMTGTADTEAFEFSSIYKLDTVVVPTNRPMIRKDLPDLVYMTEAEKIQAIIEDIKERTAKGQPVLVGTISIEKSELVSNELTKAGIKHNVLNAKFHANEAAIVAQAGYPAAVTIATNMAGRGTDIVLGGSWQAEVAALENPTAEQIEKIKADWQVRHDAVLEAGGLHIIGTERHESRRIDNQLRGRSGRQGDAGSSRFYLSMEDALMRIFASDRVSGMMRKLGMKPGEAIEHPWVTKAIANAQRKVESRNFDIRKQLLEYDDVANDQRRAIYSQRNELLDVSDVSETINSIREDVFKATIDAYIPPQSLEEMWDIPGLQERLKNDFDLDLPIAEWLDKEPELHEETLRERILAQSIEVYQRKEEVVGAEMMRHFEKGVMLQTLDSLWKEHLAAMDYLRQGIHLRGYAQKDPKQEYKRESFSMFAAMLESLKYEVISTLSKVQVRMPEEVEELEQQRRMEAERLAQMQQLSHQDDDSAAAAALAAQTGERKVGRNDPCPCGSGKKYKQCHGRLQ", "assay": "Assay to Identify E. coli SecA ATPase Inhibitors", "format": "functional"}, "Leishmania donovani": {"system": "Leishmania donovani", "assay": "Leishmania intramacrophage assay", "format": "functional, organism-based", "conditions": "Leishmania donovani"}, "[4]": {"molecular_target": "Polyketide synthase Pks13 (Mycobacterium tuberculosis (strain ATCC 25618 / H37Rv), UniProt I6X8D2)", "sequence (I6X8D2 whole entry)": "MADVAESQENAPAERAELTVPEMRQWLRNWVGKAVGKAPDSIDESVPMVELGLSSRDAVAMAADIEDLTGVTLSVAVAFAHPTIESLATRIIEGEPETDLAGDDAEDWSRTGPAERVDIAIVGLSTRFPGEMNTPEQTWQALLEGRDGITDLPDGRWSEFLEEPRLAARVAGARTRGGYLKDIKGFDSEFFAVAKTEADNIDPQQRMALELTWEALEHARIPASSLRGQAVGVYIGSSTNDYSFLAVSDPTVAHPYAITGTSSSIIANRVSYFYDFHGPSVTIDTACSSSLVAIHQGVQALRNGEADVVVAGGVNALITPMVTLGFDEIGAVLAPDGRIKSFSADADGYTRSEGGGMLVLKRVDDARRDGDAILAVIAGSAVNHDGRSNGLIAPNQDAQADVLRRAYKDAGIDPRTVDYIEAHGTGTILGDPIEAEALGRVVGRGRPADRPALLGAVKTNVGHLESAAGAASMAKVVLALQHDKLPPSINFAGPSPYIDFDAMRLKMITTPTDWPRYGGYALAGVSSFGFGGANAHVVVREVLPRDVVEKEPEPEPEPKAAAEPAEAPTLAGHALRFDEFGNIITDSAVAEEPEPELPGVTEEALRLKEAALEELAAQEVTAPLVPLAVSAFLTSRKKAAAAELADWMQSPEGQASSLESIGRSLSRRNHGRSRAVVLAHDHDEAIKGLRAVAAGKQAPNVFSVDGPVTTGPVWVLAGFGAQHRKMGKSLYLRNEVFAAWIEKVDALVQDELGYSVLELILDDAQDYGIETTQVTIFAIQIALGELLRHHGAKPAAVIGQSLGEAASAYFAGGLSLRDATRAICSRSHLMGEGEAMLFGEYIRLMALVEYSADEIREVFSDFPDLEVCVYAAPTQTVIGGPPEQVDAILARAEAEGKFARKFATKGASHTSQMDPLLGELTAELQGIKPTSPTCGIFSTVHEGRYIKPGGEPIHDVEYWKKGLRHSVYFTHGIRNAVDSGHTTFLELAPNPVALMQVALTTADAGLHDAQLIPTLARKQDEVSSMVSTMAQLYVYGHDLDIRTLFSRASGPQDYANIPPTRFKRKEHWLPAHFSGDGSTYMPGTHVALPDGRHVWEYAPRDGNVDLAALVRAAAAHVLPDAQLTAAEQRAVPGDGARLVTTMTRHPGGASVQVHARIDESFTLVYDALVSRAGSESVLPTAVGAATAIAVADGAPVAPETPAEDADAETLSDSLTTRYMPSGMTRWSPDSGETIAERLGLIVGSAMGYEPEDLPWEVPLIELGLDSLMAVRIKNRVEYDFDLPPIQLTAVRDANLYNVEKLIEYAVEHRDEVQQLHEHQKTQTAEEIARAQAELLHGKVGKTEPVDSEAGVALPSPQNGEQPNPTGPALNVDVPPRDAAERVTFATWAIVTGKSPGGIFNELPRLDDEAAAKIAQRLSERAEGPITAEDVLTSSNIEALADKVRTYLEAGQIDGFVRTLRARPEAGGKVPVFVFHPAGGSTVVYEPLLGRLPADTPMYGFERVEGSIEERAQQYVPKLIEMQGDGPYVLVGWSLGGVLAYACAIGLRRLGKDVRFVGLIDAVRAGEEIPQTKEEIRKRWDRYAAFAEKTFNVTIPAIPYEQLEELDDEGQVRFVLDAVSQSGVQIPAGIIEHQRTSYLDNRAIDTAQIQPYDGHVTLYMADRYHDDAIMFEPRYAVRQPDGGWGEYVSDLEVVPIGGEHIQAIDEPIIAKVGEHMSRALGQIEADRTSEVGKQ", "assay": "Mycobacterium tuberculosis Polyketide synthase 13 Thioesterase (PKS13)", "format": "functional"}, "[5]": {"molecular_target": "Chromo domain-containing protein 1 (Saccharomyces cerevisiae (strain ATCC 204508 / S288c) (Baker's yeast), UniProt P32657)", "sequence (P32657 whole entry, the tested form may be a part)": "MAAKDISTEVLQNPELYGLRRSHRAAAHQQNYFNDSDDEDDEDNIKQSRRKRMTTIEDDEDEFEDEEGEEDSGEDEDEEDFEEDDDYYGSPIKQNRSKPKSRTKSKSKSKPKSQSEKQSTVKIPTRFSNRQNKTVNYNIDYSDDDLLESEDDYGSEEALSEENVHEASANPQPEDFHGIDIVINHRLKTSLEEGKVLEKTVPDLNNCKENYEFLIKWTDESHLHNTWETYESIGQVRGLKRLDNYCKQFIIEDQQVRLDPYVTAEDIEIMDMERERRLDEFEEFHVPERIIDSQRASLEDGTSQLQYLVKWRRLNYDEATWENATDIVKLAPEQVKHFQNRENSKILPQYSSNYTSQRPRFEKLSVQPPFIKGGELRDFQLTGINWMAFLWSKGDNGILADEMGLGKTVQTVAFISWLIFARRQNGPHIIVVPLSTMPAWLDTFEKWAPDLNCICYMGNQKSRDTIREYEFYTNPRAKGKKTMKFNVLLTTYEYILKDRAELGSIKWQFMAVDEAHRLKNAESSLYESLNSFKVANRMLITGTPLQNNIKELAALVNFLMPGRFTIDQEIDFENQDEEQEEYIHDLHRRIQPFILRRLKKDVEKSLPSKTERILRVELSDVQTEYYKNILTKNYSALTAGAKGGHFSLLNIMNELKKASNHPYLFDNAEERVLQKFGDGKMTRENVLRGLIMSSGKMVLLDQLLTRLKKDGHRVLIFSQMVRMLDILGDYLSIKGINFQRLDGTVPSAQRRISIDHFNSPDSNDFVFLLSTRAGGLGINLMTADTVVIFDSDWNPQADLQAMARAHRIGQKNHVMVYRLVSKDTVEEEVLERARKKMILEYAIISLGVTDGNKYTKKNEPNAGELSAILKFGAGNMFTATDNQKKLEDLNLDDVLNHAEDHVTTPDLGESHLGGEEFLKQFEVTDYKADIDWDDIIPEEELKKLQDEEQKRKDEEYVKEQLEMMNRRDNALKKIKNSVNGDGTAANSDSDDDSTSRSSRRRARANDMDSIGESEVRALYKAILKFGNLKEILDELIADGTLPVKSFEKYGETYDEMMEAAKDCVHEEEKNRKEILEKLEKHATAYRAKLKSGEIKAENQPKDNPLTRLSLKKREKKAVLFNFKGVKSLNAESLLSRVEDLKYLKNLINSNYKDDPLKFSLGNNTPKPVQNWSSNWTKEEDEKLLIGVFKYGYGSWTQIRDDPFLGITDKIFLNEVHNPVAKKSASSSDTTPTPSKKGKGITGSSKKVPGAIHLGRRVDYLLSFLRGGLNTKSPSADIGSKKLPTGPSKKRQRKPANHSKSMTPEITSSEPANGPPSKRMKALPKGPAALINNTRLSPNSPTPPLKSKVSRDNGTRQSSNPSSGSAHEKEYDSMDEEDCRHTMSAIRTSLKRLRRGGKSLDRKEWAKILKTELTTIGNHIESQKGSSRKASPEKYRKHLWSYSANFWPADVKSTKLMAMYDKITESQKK", "assay": "ScCHD-1 Enzyme Inhibition Assay", "format": "functional"}, "[6]": {"assay": "Trypanosoma cruzi proteasome luciferase counter-screen", "format": "functional, N/A"}, "Proteasome subunit beta": {"molecular_target": "T3, Proteasome subunit beta (Trypanosoma cruzi, UniProt O96673)", "T3 sequence (O96673 whole entry)": "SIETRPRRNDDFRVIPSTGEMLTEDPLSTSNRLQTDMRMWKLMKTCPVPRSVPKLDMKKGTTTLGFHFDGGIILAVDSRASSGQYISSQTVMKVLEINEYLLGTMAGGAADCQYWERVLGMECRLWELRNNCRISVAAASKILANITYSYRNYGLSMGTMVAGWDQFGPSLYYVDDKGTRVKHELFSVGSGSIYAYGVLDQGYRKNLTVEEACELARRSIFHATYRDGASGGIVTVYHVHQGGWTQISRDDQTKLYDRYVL", "assay": "Trypanosoma cruzi proteasome chymotrypsin-like activity (TcProtChymo) assay.", "format": "functional"}, "Schistosoma mansoni": {"system": "Schistosoma mansoni", "assay": "High throughput screening of compounds against Schistosoma mansoni motility", "format": "functional", "set-up": "dose or concentration left out as unconfirmed"}, "Histidine--tRNA ligase": {"molecular_target": "T4, Histidine--tRNA ligase (Leishmania infantum, UniProt A4I591)", "T4 sequence (A4I591 whole entry)": "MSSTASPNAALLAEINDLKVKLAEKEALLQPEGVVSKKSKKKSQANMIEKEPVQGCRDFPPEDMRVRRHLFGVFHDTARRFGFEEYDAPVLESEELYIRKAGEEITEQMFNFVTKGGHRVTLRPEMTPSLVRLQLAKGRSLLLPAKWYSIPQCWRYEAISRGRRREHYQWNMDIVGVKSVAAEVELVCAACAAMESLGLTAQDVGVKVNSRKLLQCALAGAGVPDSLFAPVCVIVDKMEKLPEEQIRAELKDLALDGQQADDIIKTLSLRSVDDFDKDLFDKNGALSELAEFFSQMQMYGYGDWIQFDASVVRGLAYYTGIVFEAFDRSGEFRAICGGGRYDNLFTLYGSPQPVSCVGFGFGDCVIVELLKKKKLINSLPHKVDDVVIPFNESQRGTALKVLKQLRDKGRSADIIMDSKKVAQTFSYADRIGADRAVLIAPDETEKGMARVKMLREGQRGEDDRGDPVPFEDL", "assay": "Leishmania infantum Histidine tRNA synthetase (LdHisRS)", "format": "functional"}, "[7]": {"molecular_target": "T5, Aspartate--tRNA(Asp/Asn) ligase (Mycobacterium tuberculosis (strain ATCC 25618 / H37Rv), UniProt P9WFW3)", "T5 sequence (P9WFW3 whole entry)": "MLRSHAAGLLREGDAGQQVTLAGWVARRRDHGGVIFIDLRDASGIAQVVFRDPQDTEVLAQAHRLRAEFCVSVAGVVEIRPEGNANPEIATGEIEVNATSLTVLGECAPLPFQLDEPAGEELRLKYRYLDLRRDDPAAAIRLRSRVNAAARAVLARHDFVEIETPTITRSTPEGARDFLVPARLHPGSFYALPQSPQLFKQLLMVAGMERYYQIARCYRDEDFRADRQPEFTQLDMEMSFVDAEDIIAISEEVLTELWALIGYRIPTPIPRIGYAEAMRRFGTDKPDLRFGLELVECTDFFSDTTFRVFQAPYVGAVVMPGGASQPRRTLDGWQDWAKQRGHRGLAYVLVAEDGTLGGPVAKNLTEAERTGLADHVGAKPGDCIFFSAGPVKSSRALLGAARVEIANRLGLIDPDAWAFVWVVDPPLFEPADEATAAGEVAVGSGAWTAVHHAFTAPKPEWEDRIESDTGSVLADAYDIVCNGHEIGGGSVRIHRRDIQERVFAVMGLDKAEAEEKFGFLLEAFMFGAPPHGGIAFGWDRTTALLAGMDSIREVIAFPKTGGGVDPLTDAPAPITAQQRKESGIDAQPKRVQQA", "assay": "Assay for Asp RNA synthetase-1 from Mycobacterium tuberculosis", "format": "functional"}, "Lysine--tRNA ligase": {"molecular_target": "Lysine--tRNA ligase (Plasmodium falciparum (isolate 3D7), UniProt Q8IDJ8)", "sequence (Q8IDJ8 whole entry)": "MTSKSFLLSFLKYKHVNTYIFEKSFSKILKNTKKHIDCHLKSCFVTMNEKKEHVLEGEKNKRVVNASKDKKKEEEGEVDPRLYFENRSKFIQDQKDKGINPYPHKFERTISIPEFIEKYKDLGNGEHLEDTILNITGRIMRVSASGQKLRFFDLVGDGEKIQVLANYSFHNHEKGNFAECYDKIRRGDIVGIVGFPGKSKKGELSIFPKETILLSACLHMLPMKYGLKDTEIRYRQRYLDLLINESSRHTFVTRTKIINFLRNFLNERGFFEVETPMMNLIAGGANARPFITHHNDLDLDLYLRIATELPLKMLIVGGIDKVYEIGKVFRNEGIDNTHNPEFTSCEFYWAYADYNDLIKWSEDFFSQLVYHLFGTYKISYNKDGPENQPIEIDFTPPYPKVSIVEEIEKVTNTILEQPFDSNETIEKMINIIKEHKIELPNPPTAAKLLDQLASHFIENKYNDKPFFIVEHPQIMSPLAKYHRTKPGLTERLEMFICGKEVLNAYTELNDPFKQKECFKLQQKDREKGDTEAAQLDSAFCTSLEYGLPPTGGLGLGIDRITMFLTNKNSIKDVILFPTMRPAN", "assay": "Pf-KRS-1 (Lysyl-RNA Synthetase-1, KRS-1, cytosolic KRS) from Plasmodium falciparum. Inhibitor assay, 384 well plate, luminescence read.", "format": "functional"}, "Tryptophan--tRNA ligase": {"molecular_target": "Tryptophan--tRNA ligase (Mycobacterium tuberculosis (strain ATCC 25618 / H37Rv), UniProt P9WFT3)", "sequence (P9WFT3 whole entry)": "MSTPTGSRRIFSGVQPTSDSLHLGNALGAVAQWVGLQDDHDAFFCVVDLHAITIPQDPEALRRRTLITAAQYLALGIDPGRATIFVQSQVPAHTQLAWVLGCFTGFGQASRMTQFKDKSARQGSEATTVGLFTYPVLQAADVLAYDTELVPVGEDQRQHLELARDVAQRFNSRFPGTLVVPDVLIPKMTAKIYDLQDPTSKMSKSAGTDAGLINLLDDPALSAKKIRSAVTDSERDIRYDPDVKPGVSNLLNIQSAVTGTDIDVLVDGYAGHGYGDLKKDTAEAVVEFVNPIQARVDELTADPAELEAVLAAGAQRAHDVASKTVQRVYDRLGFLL", "assay": "Biochemical assay for Mt-TrpRS", "format": "functional"}}, "note": "Several values for one entry are separate records, joined by “and”; a condition that tells them apart may be missing. Equal values may be shown once.", "data": [{"smiles": "COc1ccc(C2SC(C)=Nc3c2c(=O)[nH]n3C2CCCCC2)cc1O", "note": "(stereo unspecified)", "values": [{"measurement": "IC50", "setting": "[1]", "value": "> 100", "unit": "µM"}, {"measurement": "IC50", "setting": "[2]", "value": "> 100", "unit": "µM"}]}, {"smiles": "CC1(C)OCC(CNC(=O)c2cnn(-c3ccc(Cl)cc3)c2N)O1", "note": "(stereo unspecified)", "values": [{"measurement": "IC50", "setting": "Shiga toxin 2", "value": "> 100", "unit": "µM"}, {"measurement": "IC50", "setting": "[3]", "value": "> 100", "unit": "µM"}]}, {"smiles": "CC(=O)N1CCN(c2ccc3ccc(C(=O)NC4CCCC4)cn23)CC1", "values": [{"measurement": "IC50", "setting": "[1]", "value": "41.1 µM and > 100 µM"}, {"measurement": "IC50", "setting": "[2]", "value": "> 100", "unit": "µM"}]}, {"smiles": "O=C(NC1CC1)c1ccc2ccc(N3CCN(CC4CC4)CC3)n2c1", "values": [{"measurement": "IC50", "setting": "[1]", "value": "41.1 µM and > 100 µM"}, {"measurement": "IC50", "setting": "[2]", "value": "> 100", "unit": "µM"}, {"measurement": "IC50", "setting": "Leishmania donovani", "value": "> 50.1", "unit": "µM"}]}, {"smiles": "CN(CC1CC1)c1ccc2ccc(C(=O)NCCN3CCOCC3)cn12", "values": [{"measurement": "IC50", "setting": "[1]", "value": "94.4 µM and > 100 µM"}, {"measurement": "IC50", "setting": "[2]", "value": "> 100", "unit": "µM"}, {"measurement": "IC50", "setting": "Leishmania donovani", "value": "> 50.1", "unit": "µM"}]}, {"smiles": "O=C(C1=CCCC1)N1C[C@H](Oc2cccnc2)[C@H]2OCCC[C@H]21", "values": [{"measurement": "IC50", "setting": "[1]", "value": "> 100", "unit": "µM"}, {"measurement": "IC50", "setting": "[2]", "value": "> 100", "unit": "µM"}]}, {"smiles": "O=C(NCc1ccccc1)N1CCC2(CC(=O)N(c3ccsc3)C2)C1", "note": "(stereo unspecified)", "values": [{"measurement": "IC50", "setting": "[1]", "value": "> 100", "unit": "µM"}, {"measurement": "IC50", "setting": "[2]", "value": "> 100", "unit": "µM"}]}, {"smiles": "CNC(=O)[C@H]1CCS(=O)(=O)[C@@H]2CN(Cc3ccc(OC)cc3)C[C@H]12", "values": [{"measurement": "IC50", "setting": "[1]", "value": "> 100", "unit": "µM"}, {"measurement": "IC50", "setting": "[2]", "value": "> 100", "unit": "µM"}]}, {"smiles": "COCCN1C[C@@H]2CN(c3ncccn3)C[C@@H]2C1=O", "values": [{"measurement": "IC50", "setting": "[1]", "value": "> 100", "unit": "µM"}, {"measurement": "IC50", "setting": "[4]", "value": "> 100", "unit": "µM"}, {"measurement": "IC50", "setting": "[2]", "value": "> 100", "unit": "µM"}, {"measurement": "IC50", "setting": "[5]", "value": "> 29.5", "unit": "µM"}]}, {"smiles": "CN1CCc2nc(C3CCN(C(=O)CCC4CCCC4)CC3)ncc2C1", "values": [{"measurement": "pIC50", "setting": "[6]", "value": "< 4"}, {"measurement": "IC50", "setting": "[1]", "value": "45.5 µM and 43.7 µM"}, {"measurement": "IC50", "setting": "[2]", "value": "46.4 µM and 43.1 µM"}, {"measurement": "IC50", "setting": "Proteasome subunit beta", "value": "> 100", "unit": "µM"}]}, {"smiles": "Cn1nc2c(cc1=O)CN(CC(=O)Nc1ccc(Cl)cn1)CC2", "values": [{"measurement": "Percent Effect", "setting": "Schistosoma mansoni", "value": -19.3, "unit": "%"}, {"measurement": "IC50", "setting": "Histidine--tRNA ligase", "value": "19 µM and 22.2 µM"}, {"measurement": "IC50", "setting": "[7]", "value": "90 µM and > 100 µM"}]}, {"smiles": "Cc1cc(CN2CCc3nn(C)c(=O)cc3C2)on1", "values": [{"measurement": "Percent Effect", "setting": "Schistosoma mansoni", "value": -21.81, "unit": "%"}, {"measurement": "IC50", "setting": "Histidine--tRNA ligase", "value": "35.6 µM and 40.1 µM"}, {"measurement": "IC50", "setting": "Lysine--tRNA ligase", "value": "> 50.1", "unit": "µM"}, {"measurement": "IC50", "setting": "Tryptophan--tRNA ligase", "value": "> 195", "unit": "µM"}, {"measurement": "IC50", "setting": "[7]", "value": "> 100", "unit": "µM"}]}, {"smiles": "Cc1cc(C)n(C2CN(CC(=O)N(C)Cc3ccc(C)o3)C2)n1", "values": [{"measurement": "IC50", "setting": "[1]", "value": "79.3 µM and 74.7 µM"}, {"measurement": "IC50", "setting": "[2]", "value": "75.8 µM and 72.1 µM"}]}, {"smiles": "Cc1cc(-c2nn(C)c(Cl)c2CN2Cc3ccccc3C(O)C2)no1", "note": "(stereo unspecified)", "values": [{"measurement": "IC50", "setting": "Shiga toxin 2", "value": "41.5 µM and > 100 µM"}, {"measurement": "IC50", "setting": "Histidine--tRNA ligase", "value": "16.7 µM and 20.3 µM"}, {"measurement": "IC50", "setting": "Lysine--tRNA ligase", "value": "> 50.1", "unit": "µM"}]}, {"smiles": "COCCN(C)C(=O)Cn1cccc(OC)c1=O", "values": [{"measurement": "IC50", "setting": "Histidine--tRNA ligase", "value": "> 100", "unit": "µM"}, {"measurement": "IC50", "setting": "[7]", "value": "> 100", "unit": "µM"}]}]}
